Test results from ChEMBL document CHEMBL4334516, “Kinase Chemodiversity from the Arctic: The Breitfussins” (J Med Chem, 2019).

How the values were obtained:
HT-29 = experiment: Cytotoxicity in human HT-29 cells assessed as reduction in cell viability incubated for 72 hrs by MTS assay; type: functional, cell-based; conditions: HT-29, 72 h
MOLT-4 = experiment: Cytotoxicity in human MOLT4 cells assessed as reduction in cell viability incubated for 72 hrs by MTS assay; type: functional, cell-based; conditions: MOLT-4, 72 h
MV4-11 = experiment: Cytotoxicity in human MV4-11 cells assessed as reduction in cell viability incubated for 72 hrs by MTS assay; type: functional, cell-based; conditions: MV4-11, 72 h
A2058 = experiment: Cytotoxicity in human A2058 cells assessed as reduction in cell viability incubated for 72 hrs by MTS assay; type: functional, cell-based; conditions: A2058, 72 h
MRC5 = experiment: Cytotoxicity in human MRC5 cells assessed as reduction in cell viability incubated for 72 hrs by MTS assay; type: cell-based; conditions: MRC5, 72 h
[1] = molecular target: T1, Mitogen-activated protein kinase 15 (Homo sapiens, UniProt Q8TD08); experiment: Inhibition of ERK8 (unknown origin) by [33P]-ATP filter binding kinase assay
T1 sequence (Q8TD08 whole entry): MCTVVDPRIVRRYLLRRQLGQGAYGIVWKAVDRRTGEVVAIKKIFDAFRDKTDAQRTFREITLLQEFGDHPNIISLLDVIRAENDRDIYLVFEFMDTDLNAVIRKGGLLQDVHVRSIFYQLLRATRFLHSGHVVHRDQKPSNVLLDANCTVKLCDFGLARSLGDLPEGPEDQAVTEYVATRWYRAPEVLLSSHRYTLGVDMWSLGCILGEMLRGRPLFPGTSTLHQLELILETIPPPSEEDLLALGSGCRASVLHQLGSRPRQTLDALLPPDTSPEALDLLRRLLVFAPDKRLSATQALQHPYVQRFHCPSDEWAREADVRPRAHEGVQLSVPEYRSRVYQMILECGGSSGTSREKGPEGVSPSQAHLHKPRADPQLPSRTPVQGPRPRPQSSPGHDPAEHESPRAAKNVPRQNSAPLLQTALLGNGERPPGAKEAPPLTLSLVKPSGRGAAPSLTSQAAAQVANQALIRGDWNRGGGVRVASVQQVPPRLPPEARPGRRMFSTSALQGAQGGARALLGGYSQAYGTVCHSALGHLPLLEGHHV

[2] = molecular target: T2, Serine/threonine-protein kinase pim-1 (Homo sapiens, UniProt P11309); experiment: Inhibition of PIM1 (unknown origin) by [33P]-ATP filter binding kinase assay
Target sequence in this assay (P11309 whole entry): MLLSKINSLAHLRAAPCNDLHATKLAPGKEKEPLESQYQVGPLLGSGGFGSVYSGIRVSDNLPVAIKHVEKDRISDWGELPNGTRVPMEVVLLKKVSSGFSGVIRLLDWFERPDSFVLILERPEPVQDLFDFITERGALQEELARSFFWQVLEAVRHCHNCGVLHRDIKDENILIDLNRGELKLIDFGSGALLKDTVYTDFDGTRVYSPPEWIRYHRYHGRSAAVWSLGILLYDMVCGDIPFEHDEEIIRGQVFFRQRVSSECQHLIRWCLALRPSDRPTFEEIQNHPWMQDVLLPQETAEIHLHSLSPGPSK

[3] = molecular target: Serine/threonine-protein kinase pim-2 (Homo sapiens, UniProt Q9P1W9); experiment: Inhibition of PIM2 (unknown origin) by [33P]-ATP filter binding kinase assay
[4] = molecular target: Mitogen-activated protein kinase kinase kinase 11 (Homo sapiens, UniProt Q16584); experiment: Inhibition of MLK3 (unknown origin) by [33P]-ATP filter binding kinase assay
Aurora kinase B = Aurora kinase B (Homo sapiens, UniProt Q96GD4); experiment: Inhibition of Aurora B (unknown origin) by [33P]-ATP filter binding kinase assay
[5] = molecular target: T3, Serine/threonine-protein kinase pim-3 (Homo sapiens, UniProt Q86V86); experiment: Inhibition of PIM3 (unknown origin) assessed as residual enzyme activity at 1 uM by [33P]-ATP filter binding kinase assay relative to control
[6] = molecular target: T4, Serine/threonine-protein kinase 17A (Homo sapiens, UniProt Q9UEE5); experiment: Inhibition of Alexa Fluor 647-labeled ATP competitive kinase tracer binding to GST-tagged DRAK1 (unknown origin) by FRET based cell free ATP-competitive tracer displacement assay
T4 sequence (Q9UEE5 whole entry): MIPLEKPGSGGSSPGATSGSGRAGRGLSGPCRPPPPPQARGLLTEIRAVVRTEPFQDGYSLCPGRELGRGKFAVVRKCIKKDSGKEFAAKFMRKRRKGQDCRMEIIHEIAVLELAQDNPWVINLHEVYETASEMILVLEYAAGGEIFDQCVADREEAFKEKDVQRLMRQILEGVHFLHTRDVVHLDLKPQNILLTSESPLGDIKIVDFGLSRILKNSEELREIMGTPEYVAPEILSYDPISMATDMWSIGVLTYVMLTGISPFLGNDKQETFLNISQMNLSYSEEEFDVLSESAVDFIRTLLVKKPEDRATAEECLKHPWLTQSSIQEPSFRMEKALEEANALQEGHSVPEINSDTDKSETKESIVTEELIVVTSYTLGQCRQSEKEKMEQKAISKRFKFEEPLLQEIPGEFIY

[7] = molecular target: T5, Serine/threonine-protein kinase 17B (Homo sapiens, UniProt O94768); experiment: Inhibition of Alexa Fluor 647-labeled ATP competitive kinase tracer binding to GST-tagged DRAK2 (unknown origin) by FRET based cell free ATP-competitive tracer displacement assay
T5 sequence (O94768 whole entry): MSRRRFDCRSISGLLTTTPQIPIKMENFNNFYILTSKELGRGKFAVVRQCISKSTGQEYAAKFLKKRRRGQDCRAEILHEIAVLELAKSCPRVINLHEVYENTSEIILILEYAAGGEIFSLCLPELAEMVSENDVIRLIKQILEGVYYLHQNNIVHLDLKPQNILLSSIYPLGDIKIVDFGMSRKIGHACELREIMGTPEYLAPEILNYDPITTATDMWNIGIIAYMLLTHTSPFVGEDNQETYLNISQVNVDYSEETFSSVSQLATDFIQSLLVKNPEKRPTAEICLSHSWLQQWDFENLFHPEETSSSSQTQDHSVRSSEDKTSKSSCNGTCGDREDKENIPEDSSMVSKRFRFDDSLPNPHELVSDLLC

[8] = molecular target: T5, Serine/threonine-protein kinase 17B; experiment: Inhibition of DRAK2 (unknown origin) expressed in HEK293 cells by NanoLuc-luciferase reporter based intracellular ATP competitiveness assay; type: cell-based
[9] = molecular target: T2, Serine/threonine-protein kinase pim-1; experiment: Inhibition of PIM1 (unknown origin) assessed as residual enzyme activity at 1 uM by [33P]-ATP filter binding kinase assay relative to control
Target sequence in this assay (P11309 whole entry, looked up): as the sequence (P11309 whole entry) above

[10] = molecular target: T3, Serine/threonine-protein kinase pim-3; experiment: Binding affinity to wild-type human partial length PIM3 (G16 to A317 residues) expressed in bacterial expression system assessed as residual binding level at 10 uM by active-site directed competition binding assay based Kinomescan method relative to control
[11] = molecular target: Mitogen-activated protein kinase kinase kinase 9 (Homo sapiens, UniProt P80192); experiment: Binding affinity to wild-type human partial length MLK1 (V88 to W426 residues) expressed in bacterial expression system assessed as residual binding level at 10 uM by active-site directed competition binding assay based Kinomescan method relative to control
[12] = molecular target: 1-phosphatidylinositol 3-phosphate 5-kinase (Homo sapiens, UniProt Q9Y2I7); experiment: Binding affinity to wild-type human partial length PIKFYVE (F1512 to C2098 residues) expressed in mammalian expression system by active-site directed competition binding assay based Kinomescan method
[13] = molecular target: Citron Rho-interacting kinase (Homo sapiens, UniProt O14578); experiment: Binding affinity to wild-type human partial length CIT (M68 to E432 residues) expressed in bacterial expression system by active-site directed competition binding assay based Kinomescan method
[14] = molecular target: T3, Serine/threonine-protein kinase pim-3; experiment: Binding affinity to wild-type human partial length PIM3 (G16 to A317 residues) expressed in bacterial expression system by active-site directed competition binding assay based Kinomescan method
[15] = Stability in human liver microsomes supplemented with UDP-glucuronic acid assessed as parent compound remaining level at 5 uM incubated for 1 hr by LC-MS analysis; type: ADME, Microsome; conditions: read-out: Stability

Serine/threonine-protein kinase pim-2, sequence (Q9P1W9 whole entry): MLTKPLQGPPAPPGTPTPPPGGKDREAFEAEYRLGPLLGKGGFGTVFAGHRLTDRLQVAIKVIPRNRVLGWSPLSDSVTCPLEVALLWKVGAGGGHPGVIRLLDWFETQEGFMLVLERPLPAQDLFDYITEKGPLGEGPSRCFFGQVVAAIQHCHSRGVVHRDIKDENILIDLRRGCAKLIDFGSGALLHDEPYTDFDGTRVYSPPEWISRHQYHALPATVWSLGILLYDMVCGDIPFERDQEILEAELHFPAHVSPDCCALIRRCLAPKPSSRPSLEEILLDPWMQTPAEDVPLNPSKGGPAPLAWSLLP
Aurora kinase B, sequence (Q96GD4 whole entry): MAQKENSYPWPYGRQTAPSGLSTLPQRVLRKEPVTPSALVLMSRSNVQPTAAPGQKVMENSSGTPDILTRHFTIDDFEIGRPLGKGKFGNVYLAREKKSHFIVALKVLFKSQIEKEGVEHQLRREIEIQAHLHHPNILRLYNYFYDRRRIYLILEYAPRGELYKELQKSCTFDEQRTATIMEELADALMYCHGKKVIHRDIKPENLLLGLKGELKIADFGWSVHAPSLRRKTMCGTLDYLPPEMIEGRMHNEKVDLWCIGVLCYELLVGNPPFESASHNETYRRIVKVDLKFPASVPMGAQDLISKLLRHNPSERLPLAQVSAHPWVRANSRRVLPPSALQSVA
Mitogen-activated protein kinase kinase kinase 11, sequence (Q16584 whole entry): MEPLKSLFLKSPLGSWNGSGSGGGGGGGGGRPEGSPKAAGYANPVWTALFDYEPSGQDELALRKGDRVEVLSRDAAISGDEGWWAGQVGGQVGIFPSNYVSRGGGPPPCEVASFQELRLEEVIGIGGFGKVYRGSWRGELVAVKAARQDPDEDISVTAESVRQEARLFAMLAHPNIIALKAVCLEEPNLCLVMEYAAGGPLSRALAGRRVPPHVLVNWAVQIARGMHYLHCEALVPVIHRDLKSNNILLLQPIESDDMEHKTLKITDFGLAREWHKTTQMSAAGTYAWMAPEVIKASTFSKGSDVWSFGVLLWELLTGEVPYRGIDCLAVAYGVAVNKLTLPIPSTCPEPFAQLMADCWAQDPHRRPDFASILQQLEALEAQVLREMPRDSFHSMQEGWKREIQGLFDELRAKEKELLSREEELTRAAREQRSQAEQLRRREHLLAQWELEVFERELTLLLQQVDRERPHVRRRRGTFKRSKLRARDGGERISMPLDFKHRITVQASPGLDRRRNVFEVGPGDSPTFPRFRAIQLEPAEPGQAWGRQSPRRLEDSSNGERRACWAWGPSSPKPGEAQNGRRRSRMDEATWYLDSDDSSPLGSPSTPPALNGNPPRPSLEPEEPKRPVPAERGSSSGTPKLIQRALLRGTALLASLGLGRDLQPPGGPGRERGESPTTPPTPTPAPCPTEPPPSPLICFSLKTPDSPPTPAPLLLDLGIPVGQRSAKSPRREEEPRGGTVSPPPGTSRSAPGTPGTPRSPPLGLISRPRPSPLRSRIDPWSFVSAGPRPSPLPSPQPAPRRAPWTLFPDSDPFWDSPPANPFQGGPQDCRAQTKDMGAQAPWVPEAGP
Mitogen-activated protein kinase kinase kinase 9, sequence (P80192 whole entry, looked up, the tested form may be a part): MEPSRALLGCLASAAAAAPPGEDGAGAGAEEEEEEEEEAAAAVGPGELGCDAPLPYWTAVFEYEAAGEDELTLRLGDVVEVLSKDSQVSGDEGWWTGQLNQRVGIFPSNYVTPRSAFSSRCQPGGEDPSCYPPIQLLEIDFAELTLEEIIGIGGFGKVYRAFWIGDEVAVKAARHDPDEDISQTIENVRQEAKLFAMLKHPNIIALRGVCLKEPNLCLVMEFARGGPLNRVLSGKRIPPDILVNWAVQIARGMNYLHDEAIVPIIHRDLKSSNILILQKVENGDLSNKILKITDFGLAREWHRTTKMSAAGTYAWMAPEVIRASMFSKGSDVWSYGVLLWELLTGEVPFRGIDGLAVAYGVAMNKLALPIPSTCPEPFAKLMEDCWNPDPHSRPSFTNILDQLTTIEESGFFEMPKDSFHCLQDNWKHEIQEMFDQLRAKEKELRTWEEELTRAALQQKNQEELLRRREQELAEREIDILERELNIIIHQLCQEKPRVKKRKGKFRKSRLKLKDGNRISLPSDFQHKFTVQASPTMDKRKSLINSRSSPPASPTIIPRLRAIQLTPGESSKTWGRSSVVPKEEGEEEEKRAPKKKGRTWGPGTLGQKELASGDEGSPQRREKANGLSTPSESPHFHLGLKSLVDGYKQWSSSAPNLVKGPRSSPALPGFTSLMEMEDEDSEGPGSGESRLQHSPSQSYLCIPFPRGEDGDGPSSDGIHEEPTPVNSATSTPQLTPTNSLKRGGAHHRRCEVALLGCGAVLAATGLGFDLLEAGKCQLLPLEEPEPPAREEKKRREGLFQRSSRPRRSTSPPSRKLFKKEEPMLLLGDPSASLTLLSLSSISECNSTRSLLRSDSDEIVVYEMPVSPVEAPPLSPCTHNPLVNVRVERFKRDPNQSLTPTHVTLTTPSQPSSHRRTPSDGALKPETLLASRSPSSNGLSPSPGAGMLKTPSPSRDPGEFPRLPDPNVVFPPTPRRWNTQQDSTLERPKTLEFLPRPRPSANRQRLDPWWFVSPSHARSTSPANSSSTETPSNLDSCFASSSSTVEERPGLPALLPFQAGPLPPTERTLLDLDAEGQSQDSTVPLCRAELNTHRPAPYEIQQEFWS

| IC50 [2] [µM] | IC50 [3] [µM] | IC50 [4] [µM] | IC50 (Aurora kinase B) [µM] | IC50 [6] [µM] | IC50 [7] [µM] | IC50 [8] [µM] | SMILES | IC50 (HT-29) [µM] | IC50 (MOLT-4) [µM] | IC50 (MV4-11) [µM] | IC50 (A2058) [µM] | IC50 (MRC5) [µM] | IC50 [1] [µM] | Activity [5] [%] | other results |
| --- | --- | --- | --- | --- | --- | --- | --- | --- | --- | --- | --- | --- | --- | --- | --- |
| 0.9 | 22 | 0.5 | 0.9 | 9.6 | > 10 | 8.3 | COc1cc(Br)cc2[nH]cc(-c3cnc(-c4ccc[nH]4)o3)c12 | > 10 | > 10 | > 10 | > 10 | > 10 | 46 | 29 |  |
| > 10 | > 10 | > 10 | > 10 | > 10 | > 10 | 3.3 | COc1cc(Br)cc2[nH]cc(-c3cnc(-c4ccc(Br)[nH]4)o3)c12 | > 10 | > 10 | > 10 | > 10 | > 10 | > 10 |  |  |
| > 10 | > 10 | > 10 | > 10 | > 10 | > 10 | > 10 | COc1cc(Br)cc2[nH]cc(-c3oc(-c4ccc[nH]4)nc3I)c12 | > 10 | > 10 | > 10 | > 10 | > 10 | > 10 |  |  |

| SMILES | IC50 [2] [µM] | IC50 [3] [µM] | IC50 [4] [µM] | IC50 (Aurora kinase B) [µM] | IC50 [6] [µM] | IC50 [7] [µM] | IC50 [8] [µM] | IC50 (HT-29) [µM] | IC50 (MOLT-4) [µM] | IC50 (MV4-11) [µM] | IC50 (A2058) [µM] | IC50 (MRC5) [µM] | IC50 [1] [µM] | Activity [5] [%] | other results |
| --- | --- | --- | --- | --- | --- | --- | --- | --- | --- | --- | --- | --- | --- | --- | --- |
| COc1cc2c(-c3cnc(-c4ccc[nH]4)o3)c[nH]c2cc1Br | 0.2 | 11 | 0.6 | 0.8 |  | 9.8 | 0.5 | 7.1 | 9.9 | 4.4 | > 10 | 7.1 | 1 | 7 | Activity [9]: 6%; Activity [10]: 21%; Activity [11]: 59%; Kd [12]: 1 µM; Kd [13]: 2.7 µM; Kd [14]: 4.7 µM; remaining at 1 h, 5 µM [15]: 92% |
